Data from patent US20250108036A1, “COMPOSITIONS FOR REMOVING SENESCENT CELLS AND USES THEREOF” (LIFECEUTIX CO., LTD., priority 2021, published 2025).

Tests used:
[1] = system: SAOS-2; assay: CellTiter-Glo cell viability of senescent SAOS-2 cancer cells (Example 2-2); assay type: cell-based, human; details: DOX → LX (LX-112 5 μM)
Description: The standard for treating various cancers, including osteosarcoma, is repeated chemotherapy. Accordingly, aging was induced in SAOS-2 in the same manner as in Example 2-1, and then (i) treated again with doxorubicin (DOX→DOX) or (ii) treated with the LX-112 (5 μM) composition (DOX→LX-112).

[2] = system: p16; assay: p16 mRNA qRT-PCR in organ tissues of naturally aged mice (Example 7-2); assay type: in vivo, C57BL6J mice; details: LX-112 70 mg/kg oral daily 21 days, aged untreated = 100%
Description: After 22-month-old female C57BL6J mice (purchased from KRIBB Laboratory Animal Resource Center) were adapted to the experimental environment for one week, the aged mice were randomized into an experimental group and a control group. 8-week-old mice that were not aged were used as controls. LX-112 was mixed with 0.5% CMC-Na solution (purchased from Sigma) and administered orally at a concentration of 70 mg/kg daily for 21 days. The control group was administered only the solution in the same volume. After drug administration was completed, the method described in each Example below was performed.
The mouse was sacrificed, RNA was extracted from the organ tissue of each region, and qRT-PCR was performed using the synthesized cDNA. Specifically, in order to maintain the quality of RNA during the RNA extraction process, the tissue from each collected area was immediately cut into 30 mg to 50 mg pieces, placed in RNA stabilization solution (purchased from Thermo Fisher Scientific), and absorbed into the tissue for 1 day. Afterwards, it was stored at −80° C. until use. The collected tissue was placed together with the lysate in a tube containing beads for tissue homogenization (purchased from MP Bio) and homogenized using tissue homogenization equipment (purchased from MP Bio). Total RNA was extracted from the homogenized tissues. The extraction method used an RNA extraction kit (PureLink RNA Mini Kit, purchased from Thermo Fisher Scientific) for soft tissues including liver, kidney, lung, and brain, or TRIzol Reagent (purchased from Thermo Fisher Scientific) for hard tissues including muscle, skin, fat, etc. The concentration of extracted total RNA was quantified using Nanodrop (purchased from Micro Digital) or SpectraMax iD3 Multi-Mode Microplate Reader (purchased from Molecular Device). Genomic DNA was removed from the extracted total RNA using a cDNA synthesis kit (purchased from Thermo Fisher Scientific), and cDNA was prepared. Using the synthesized cDNA, qRT-PCR was performed for each gene using the housekeeping gene β-actin as a standard, using Taqman Fast Abvanced Master Mix (purchased from Applied Biosystems), SFCgreen I qPCR Master Mix (purchased from SFC Probe), or AmfiSure qGreen qPCR Master Mix (purchased from GenDEPOT), and analyzed using the CFX Connect Real-Time PCR Detection System (purchased from Bio Rad). […] Table 22 calculates the amount of p16 mRNA after senescence was induced as 100% and compared it with the amount of p16 mRNA after treatment with LX-112. The primers used were synthesized through bionics, except that TaqMan primers (purchased from Thermo Fisher Scientific) were used for p16 and IL6.

[3] = system: p16, p21; assay: p16 and p21 mRNA qRT-PCR in doxorubicin-aged mice (Example 8-2); assay type: in vivo, C57BL6J mice; details: doxorubicin-aged mice, LX-112 70 mg/kg oral daily 21 days; DOX without LX = 100%
Description: (§1) After adapting 8-week-old male C57BL6J mice (purchased from KRIBB Laboratory Animal Resource Center) to the experimental environment for 1 week, doxorubicin, an anticancer drug, was administered intraperitoneally at a concentration of 10 mg/kg, and mice that were induced to age for more than 10 days were assigned to an experimental group and a control group. LX-112 was mixed with 0.5% CMC-Na solution (purchased from Sigma) and administered orally at a concentration of 70 mg/kg daily for 21 days. The control group was administered only the solution in the same volume. After drug administration was completed, the method described in each Example below was performed.
The mouse was sacrificed in the same manner as in Example 7-2, RNA was extracted from the organ tissue of each region, and qRT-PCR was performed and analyzed using the synthesized cDNA. […] Table 37 calculates the mRNA amounts of p16 and p21 after aging was induced by treatment with the anticancer drug as 100% and compared them with the mRNA amounts of p16 and p21 after treatment with LX-112.

[4] = system: SA-β-gal; assay: SA-β-gal staining of tissues of doxorubicin-aged mice (Example 8-3); assay type: in vivo, C57BL6J mice; details: stained area; doxorubicin-aged mice, LX-112 70 mg/kg oral daily 21 days
Description: as §1
Mice were sacrificed in the same method in described in Example 7-3, and tissue sections were prepared from the organ tissues of each region. SA-β-gal, an aging marker was stained. […] FIG. 3 is a photographic result of staining of adipose tissue.

[5] = system: lipofuscin; assay: lipofuscin staining of muscle of doxorubicin-aged mice (Example 8-4); assay type: in vivo, C57BL6J mice; details: stained area; doxorubicin-aged mice, LX-112 70 mg/kg oral daily 21 days
Description: as §1
Mice were sacrificed in the same manner as in Example 7-4, and tissue sections were prepared from muscle tissue. Lipofuscin, an aging-related degenerative marker was stained.

[6] = open field test in obesity-aged mice (Example 9-4); assay type: in vivo, C57BL6J mice; details: LX-112 70 mg/kg oral daily 21 days, DIO without LX = 100%
Description: 15-week-old male C57BL6J mice (purchased from Jackson Laboratories), whose obesity was induced by a high-fat diet, were adapted to the experimental environment for one week, and then the mice were randomized into an experimental group and a control group. LX-112 was mixed with 0.5% CMC-Na solution (purchased from Sigma) and administered orally at a concentration of 70 mg/kg daily for 21 days. The control group was administered only the solution in the same volume. After drug administration was completed, the method described in each Example below was performed. Mice were sacrificed and the weight of adipose tissue in each area was measured.
Accordingly, the open field test was performed to analyze lethargy due to anxiety and depression caused by obesity in mice using the same method as Example 7-7. […] Table 58 calculates the amounts of activity after aging induced by obesity as 100% and compares it with the amount of activity evaluation after treatment with LX-112.

SMILES: O=c1c2ccccc2[se]n1CCn1[se]c2ccccc2c1=O [LX-112, 1,2-[bis(1,2-benzisoselenazolone-3(2H)-ketone)]ethane]
- Survival (%) ([1]; 3 d): 35 (±4) %
- Survival (%) ([1]; 7 d): 14 (±5) %
- p16 mRNA (%) Brain [2]: 89 (±5) %
- p16 mRNA (%) Kidney [2]: 52 (±7.9) %
- p16 mRNA (%) Liver [2]: 62 (±3.5) %
- p16 mRNA (%) Lung [2]: 69 (±1) %
- p16 mRNA (%) Muscle [2]: 76 (±3.1) %
- p16 mRNA (%) Skin [2]: 74 (±6.7) %
- p16 mRNA (%) eWAT [2]: 79 (±2) %
- p16 mRNA (%) Kidney [3]: 75 (±14.81) %
- p16 mRNA (%) Liver [3]: 70 (±8.3) %
- p16 mRNA (%) eWAT [3]: 72 (±18.75) %
- p21 mRNA (%) Kidney [3]: 83.8 (±9.5)^ %
- p21 mRNA (%) Liver [3]: 78 (±11.5) %
- p21 mRNA (%) eWAT [3]: 68.4 (±15.1)^ %
- SA-β-gal (%) Kidney [4]: 69.2 (±10.2) %
- SA-β-gal (%) Liver [4]: 67.4 (±9.9) %
- SA-β-gal (%) Lung [4]: 64.2 (±9.2) %
- SA-β-gal (%) eWAT [4]: 51.4 (±13.4) %
- Lipofuscin (%) Muscle [5]: 77.1 (±8) %
- Open Field Test Time in Center (%) [6]: 137.5 (±15) %
